Measurements reported in patent US9850241B2, “Azaindole acetic acid derivatives and their use as prostaglandin D2 receptor modulators” (IDORSIA PHARMACEUTICALS LTD, priority 2014, dated 2017).

Tests used:
[1] = tested on: primary cultured rat hepatocytes; test: In vitro cytotoxicity in primary cultured rat hepatocytes; type: cell-based; details: 24 h treatment, cell morphology and LDH leakage, highest concentration 300 μM; for LCC (lowest cytotoxic concentration): "300 s" = only slight cytotoxicity at the highest test concentration
Text: In Vitro Cytotoxicity in Primary Cultured Rat Hepatocytes
Adult male Wistar rats were narcotized with sodium pentobarbital and hepatocytes were isolated according to a standard procedure, i.e. by in situ perfusion of the liver with a collagenase solution. The viability of the purified hepatocytes, checked by the trypan blue dye exclusion method was greater than 85%. The isolated hepatocytes were resuspended in standard Williams Medium E, without phenol red, supplemented (WME supp.) with transferrin (100 μg/ml), triiodothyronine (10 μg/ml), gentamicin (50 μg/ml), hydrocortison hemisuccinate (13.36 μg/ml), glucagon (5 μg/ml), HEPES (10 mM), inosin (10 μ/ml), insulin (10 μg/ml), streptomycin (100 μg/ml) and penicillin (100 U/ml) and 10% fetal bovine serum (FBS). The cells were plated in collagen-coated 24-well plates at an initial density of 2×10^5 cells/well. After 4 h for attachment to the culture-plates, the medium was aspirated and replaced by fresh WME supp. without FBS containing the test compounds and incubated for 24 h at 37° C. in a […] and 5% CO2 atmosphere. For each experiment, i.e., with each batch of hepatocytes, treatments with the test compounds were done in quadriplicate. Quadriplicate controls (treatment with the vehicle only) were also present on each culture plate.
Stock solutions of the test compounds were prepared in DMSO a few hours before treatment start. Appropriate dilutions of these stock solutions were added to the culture media just prior to the treatment in order to give final concentrations of 0, 3, 10, 30, 100 and 300 μM. The final concentration of the vehicle DMSO was 1% (v/v).
The morphology of the hepatocyte monolayers was monitored by light microscopy after 24 hours of exposure to the test compounds. Treatment related effects are described according to the following grading: • 0 No morphological alterations observed upon treatment when compared to the control cultures • 1-3 Treatment resulting in any morphological changes, e.g. intracellular granulation, vacuolization or cell death. Depending on the severity, these changes were regarded as slight (1), moderate (2) or strong (3). • K Treatment resulting in 100% dead cells and/or the complete detachment of the monolayer yielding a clear cell-free dish.
After 24 h treatment of the hepatocyte cultures, aliquots of culture medium were carefully collected and used for the analysis of lactate dehydrogenase (LDH) activity by spectrophotometry using the LDH cytotoxicity detection kit from Clontech (cat No. 630117, Mountain View, Calif., USA). For each experiment, additional cultures were used for the determination of total intracellular LDH activity at treatment start. For this purpose, 4 wells of cell culture per experiment were washed with cold saline before treatment start, sonicated in fresh medium and the homogenate was analyzed for total LDH activity. Enzyme activities in the culture media were assessed and expressed as percentage of the total activity present in the cultured hepatocytes at the beginning of the treatments.
The lowest cytotoxic concentration (LCC) and the no effect concentration (NoEC) are given for each compound, based on cell morphology and LDH leakage after 24 h treatment. LCC is defined as the lowest concentration of the test compound leading to a clear effect on the cultured rat hepatocytes (morphology grading 2 or 2-fold increase in LDH leakage). A LCC value of >300 μM indicates the absence of effect on both endpoints at the highest test concentration of 300 μM. […] NoEC is defined as the highest test concentration of the compound which was without an effect on the cultured rat hepatocytes (morphology and LDH leakage). • 3 . Results

hCRTH2 receptor [2] = biological target: T1, hCRTH2 receptor (Homo sapiens, UniProt Q9Y5Y4); test: Radioligand displacement assay in presence of human serum albumin (HSA); details: Binding buffer with 0.5% HSA instead of 0.1% BSA, 3H-PGD2 2.5 nM
T1 construct: expressed in transfected cells; host or cells: HEK293 (recombinant HEK293-hCRTH2), membrane fragments
T1 sequence (Q9Y5Y4 1-395): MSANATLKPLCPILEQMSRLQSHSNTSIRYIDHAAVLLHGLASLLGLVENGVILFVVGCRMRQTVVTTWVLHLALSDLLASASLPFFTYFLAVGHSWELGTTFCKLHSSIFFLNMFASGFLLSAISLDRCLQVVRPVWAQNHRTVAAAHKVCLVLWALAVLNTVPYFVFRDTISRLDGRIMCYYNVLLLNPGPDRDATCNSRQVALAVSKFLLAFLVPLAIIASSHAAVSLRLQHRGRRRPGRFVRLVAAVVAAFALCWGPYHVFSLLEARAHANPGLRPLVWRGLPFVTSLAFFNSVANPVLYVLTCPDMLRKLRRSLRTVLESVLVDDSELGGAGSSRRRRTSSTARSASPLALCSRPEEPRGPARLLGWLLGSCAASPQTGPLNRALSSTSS
Description: (§1) First, recombinant HEK293-hCRTH2 cells were detached from culture plates into 5 ml buffer A/plate (Buffer A: 5 mM Tris, 1 mM MgCl2-6H2O pH=7.4) using a rubber policeman. Cells were then transferred into centrifugation tubes and centrifuged for 5 min at 400 g. The cell pellet was resuspended in the same buffer and tubes were frozen at 80° C. Cells were thawed and membrane fragments were generated by homogenization using a polytron homogenizer (30 seconds). The membrane fragments were then centrifuged at 3000 g for 20 minutes and resuspended in buffer C (Buffer C: 75 mM Tris, 25 mM MgCl2, 250 mM Saccharose pH 7.4). Aliquots of membrane fragements were stored at −20° C.
Binding assay was performed in a final assay volume of 250 μl. […] After addition of 75 μl Binding-Buffer, 50 μl of the radioligand ^3H-PGD2 (at 2.5 nM (220.000 dpm/well) from ANAWA ART0662) was added to each well. Binding assay was started by addition of 100 μl CRTH2 membrane fragments, reaching a final concentration of 20 μg/well. For non-specific binding, PGD2 was added to the reaction mixture to […] final concentration. […] Then, 40 μl of Microscint-40 (Packard) was added to each well and the retained radioactivity quantified in a Topcount (Packard). […]

[3] = tested on: eosinophils activated by PGD2; test: Eosinophil shape change assay with human plasma; type: cell-based; details: 50% human plasma, PGD2 100 nM, shape change by forward-scatter
Description: Eosinophil Shape Change Assay with human Plasma
After obtaining informed consent, blood samples were drawn by venipuncture according to the protocol approved by the ethics committee of Basel, Switzerland. Polymorphonuclear leukocytes (containing eosinophils, basophils and neutrophils) were isolated using the Polymorphprep™ method (Axis-Shield). In brief, anticoagulated whole blood was layered onto a Polymorphprep gradient (density 1.113 g/ml) and centrifuged at 500 g for 30 min. The polymorphonuclear cell fraction was harvested and depleted for erythrocytes by hypotonic saline lysis. […]
Immediately after fixation with paraformaldehyde, the samples were analyzed by FACSCanto flow cytometer (BD Biosciences) and target cells were identified by their forward-scatter (FSC) and side-scatter (SSC) characteristics. […] Shape change responses, indicative of eosinophil activation, were quantified as the percent of cells with an increased forward-scatter.

hCRTH2 receptor [4] = biological target: T1, hCRTH2 receptor; test: hCRTH2 receptor membranes radioligand displacement assay (3H-PGD2); type: binding; details: HEK293-hCRTH2 membranes, 3H-PGD2 2.5 nM, 0.1% BSA
Description: Preparation of hCRTH2 Receptor Membranes and Radioligand Displacement Assay:
as §1
Binding assay was performed in a final assay volume of 250 μl. First, 25 μl of test compound, previously diluted in Binding-Buffer (Binding-Buffer: 50 mM Tris-Base, 100 mM NaCl, 1 mM EDTA, 0.1% BSA (protease free), 0.01% NaN3, 10 mM MnCl2 pH 7.0) was placed into each well. After addition of 75 μl Binding-Buffer, 50 μl of the radioligand ^3H-PGD2 (at 2.5 nM (220.000 dpm/well) from ANAWA ART0662) was added to each well. Binding assay was started by addition of 100 μl CRTH2 membrane fragments, reaching a final concentration of 20 μg/well. For non-specific binding, PGD2 was added to the reaction mixture to […] final concentration. This assay mix was incubated for 90 minutes at room temperature and then filtered through a GF/C filter 96-well plate which was pre-soaked for 3 hours in 0.5% polyethyleneimine (PEI). The filter-wells were washed three times with ice cold Binding-Buffer. Then, 40 μl of Microscint-40 (Packard) was added to each well and the retained radioactivity quantified in a Topcount (Packard).

Row | SMILES | NoEC (no effect concentration) [1] | LCC (lowest cytotoxic concentration) [1] | IC50 (hCRTH2 receptor [2]) | IC50 [3] | IC50 (hCRTH2 receptor [4])
1 | CN(c1nc2ccc(Cl)cc2o1)[C@H]1CCc2c(c3cc(F)ccc3n2CC(=O)O)C1 | 30 µM | 100^ μM |  |  | 
2 | CN(c1nc2ccc(Cl)cc2o1)C1CCc2c(c3ncccc3n2CC(=O)O)C1 (stereo not shown) [Example 1, 2-(8-((6-chlorobenzo[d]oxazol-2-yl)(methyl)amino)-6,7,8,9-tetrahydro-5H-pyrido[3,2-b]indol-5-yl)acetic acid] |  |  | 31 nM | 27 nM | 11 nM
3 | CN(c1nc2cc(Cl)ccc2o1)C1CCc2c(c3ncccc3n2CC(=O)O)C1 (stereo not shown) [Example 2, 2-(8-((5-chlorobenzo[d]oxazol-2-yl)(methyl)amino)-6,7,8,9-tetrahydro-5H-pyrido[3,2-b]indol-5-yl)acetic acid] |  |  |  |  | 35 nM
4 | CN(c1nc2cc(F)ccc2o1)C1CCc2c(c3ncccc3n2CC(=O)O)C1 (stereo not shown) [Example 3, 2-(8-((5-fluorobenzo[d]oxazol-2-yl)(methyl)amino)-6,7,8,9-tetrahydro-5H-pyrido[3,2-b]indol-5-yl)acetic acid] |  |  |  |  | 31 nM
5 | CN(c1nc2ccc(Cl)cc2o1)C1CCc2c(c3ncccc3n2CC(=O)O)C1 (stereo not shown) [drawing 11] | >300 µM | >300^ μM |  |  | 
6 | CN(c1nc2cc(Cl)ccc2o1)C1CCc2c(c3ncccc3n2CC(=O)O)C1 (stereo not shown) [drawing 12] | 100 µM | 300 s |  |  | 
7 | CN(c1nc2cc(F)ccc2o1)C1CCc2c(c3ncccc3n2CC(=O)O)C1 (stereo not shown) [drawing 13] | 100 µM | 300 s |  |  | 
